Earlier results as cited in Sander's compilation of Henry's law constants.

Test: Henry solubility constant Hcp at 298.15 K (mol/(m3 Pa))
Settings: reference: Schüürmann (2000); cited value

Row | SMILES | Henry solubility constant Hcp
1 | Cc1ccccc1O [1-hydroxy-2-methylbenzene] | 8.3
2 | COc1ccccc1 [methoxybenzene] | 0.069
3 | O=[N+]([O-])c1ccccc1 [nitrobenzene] | 0.41
4 | c1ccccc1 [benzene] | 0.0018
5 | Clc1ccc(Cl)cc1 [1,4-dichlorobenzene] | 0.0041
6 | Clc1ccccc1 [chlorobenzene] | 0.0027
7 | CC(=O)c1ccccc1 [1-phenylethanone] | 0.93
8 | Cc1ccc(O)cc1 [1-hydroxy-4-methylbenzene] | 13
9 | Brc1ccccc1 [bromobenzene] | 0.004
10 | Cc1ccccc1 [methylbenzene] | 0.0015
11 | Sc1ccccc1 [benzenethiol] | 0.03
12 | O=Cc1ccccc1 [benzaldehyde] | 0.37
13 | Cc1ccc(C)cc1 [1,4-dimethylbenzene] | 0.0013
